Source: patent publication US20090074815A1, “Immunomodulator Compounds as Vaccine Enhancers” (SCICLONE PHARMACEUTICALS, INC., priority 2005, published 2009)
Where two headings read alike, the source gives them in different places.

Key:
lymphocytes = type: in vivo, human
[1] = Clinical manifestations of infectious syndrome (ARVI, ENT diseases, herpes, gastrointestinal, urogenital) after vaccination with SCV-07; type: in vivo, human
Description: The protocol of the placebo-controlled, randomized study of the efficacy of vaccination against viral hepatitis B was approved by the committee of ethics of the Chelyabinsk State Medical Academy. […] Diagnosis of the infectious syndrome was made in accordance with the standards of diagnostics and treatment of secondary immunodeficiencies recommended by the institute of Immunology of the Ministry of Public Health of the RF, Moscow. (R. M. Kahaitov, N. I. Iljina, L. V. and Luss et al., 2002) All subjects gave their personal consent to participate in the study and submitted a signed informed consent form.
Data on the incidence of episodes and relapses of chronic diseases for each immunocompromised subject were recorded during pre- and post vaccination periods and used to compare the immunological clinical parameters of each subject in the pre- and post vaccination periods. Chronic diseases that were tracked included diseases of the ears, nose and throat, urinary systems, genital systems and gastrointestinal tract, and diseases of the skin, hair and nails (the integumentary tissues).
Participants in the study had the following clinical manifestations of infectious syndrome: sixty-seven percent (67%) had acute respiratory viral infections (ARVI) more than four times a year; forty-nine percent (49%) had chronic inflammatory diseases of the ears, nose and throat; forty-five percent (45%) suffered from recurrent herpes viral infections; thirty percent (30%) had chronic inflammatory diseases of the gastrointestinal tract; thirty-three (33%) had recurrent infections of the skin and subcutaneous adipose cellular tissues. Study participants with the spontaneous form of secondary immunodeficiency typically had more than one chronic inflammatory disease. Seventy-one percent (71%) of the subjects with infectious syndrome had three or more different clinical manifestations of a chronic inflammatory disease. Subjects with a single clinical manifestation made up only three percent (3%) of Groups I and II.

thymic cells = experiment: Expression of T-cell subpopulation and activation markers (CD69, CD25) on thymic cells, flow cytometry; type: in vivo, mice; settings: for CD25-positive cells, % / CD69-positive, %: thymic cells cultured in vitro 48 hours
Description: Materials and Methods: Eighteen (18) to twenty (20) gram (g) male mice, purchased from the Rappolovo Animal Facility, Russia, were used in the studies described below. C57BL/6 (B6) mice were used to evaluate the effect of SCV-07 in non-immunized mice. CBAxC57BL/6 (F1) mice were used for studies of the effects of SCV-07 on the antigen-specific immune response. Mice were kept under the standard animal facility conditions and were provided with a standard diet and water ad libitum. Each treatment group included 4-5 mice. […] Analysis by Flow Cytometry: […] The expression of T-cell subpopulation markers (CD3, CD4, and CD8) and activation markers (CD69 and CD25) on thymic cells and splenocytes was studied ex vivo 72 hours after the last treatment with SCV-07. […] The expression of the CD69 marker increased after oral administration of SCV-07 tablets at doses of 0.1 and 1.0 μg/kg of body mass as well as after i/p administration at a dose of 1.0 μg/kg.

[2] = system: IL-2 production by ConA-stimulated splenocytes; experiment: IL-2 production by ConA-stimulated splenocytes; type: in vivo, mice
[3] = Healthy of group 3 after vaccination
[4] = Patients of group 2 (SCV-07 + vaccine), After vaccination

Question: What does the source list for `N[C@H](CCC(=O)N[C@@H](Cc1c[nH]c2ccccc12)C(=O)O)C(=O)O` [SCV-07, γ-D-glutamyl-L-tryptophan]?
Answer: CD3+ (%) (lymphocytes; [3]): 33.10 ± 1.88%; CD4+ (%) (lymphocytes; [3]): 22.86 ± 1.94%; CD4+/CD8+ conv. units (lymphocytes; [3]): 1.203 ± 0.094 conv. units; CD8+ (%) (lymphocytes; [3]): 19.71 ± 1.53%; CD16+ (%) (lymphocytes; [3]): 15.19 ± 1.24%; CD95+ (%) (lymphocytes; [3]): 14.62 ± 1.60%; CD3+ (%) (lymphocytes; [4]): 29.60 ± 2.41%; CD4+ (%) (lymphocytes; [4]): 20.13 ± 1.65%; CD4+/CD8+ conv. units (lymphocytes; [4]): 1.111 ± 0.086 conv. units; CD8+ (%) (lymphocytes; [4]): 18.27 ± 1.01%; CD16+ (%) (lymphocytes; [4]): 13.07 ± 1.18%; CD95+ (%) (lymphocytes; [4]): 12.60 ± 1.18%; participants reporting herpes outbreaks one to two times during a year ([1]; after vaccination and SCV-07 (13% before)): 53%; participants with herpes infections five times a year or more ([1]; after vaccination and SCV-07 administration (40% before)): no participants; incidence of ARVI ([1]; subjects who previously reported ARVI between 5 and 9 times a year, vaccine + SCV-07): sharply reduced; participants without episodes or outbreaks of herpes ([1]; vaccinated and received SCV-07): Thirty-four; subjects with aggravated chronic ENT diseases three to four times a year who had no aggravated incidents during the first year after vaccination ([1]; vaccinated participants that received SCV-07): 35%; frequency of chronic diseases of the gastrointestinal tract and the urogenital system ([1]; vaccinated participants with infectious syndrome that received SCV-07): did not change; subpopulation composition of T-cells and expression of their activation markers (thymic cells; thymic cells and splenocytes ex vivo 72 hours after the last treatment, i/p or per os, data not shown): No significant differences; CD25-positive cells, % (thymic cells; 0.1 μg/kg Tablet, per os): 0.7%; CD69-positive, % (thymic cells; 0.1 μg/kg Tablet, per os): 3.35%; CD25-positive cells, % (thymic cells; 0.1 μg/kg i/p): 0.30%; CD69-positive, % (thymic cells; 0.1 μg/kg i/p): 2.03%; CD25-positive cells, % (thymic cells; 1.0 μg/kg Tablet, per os): 0.79%; CD69-positive, % (thymic cells; 1.0 μg/kg Tablet, per os): 4.61%; CD25-positive cells, % (thymic cells; 1.0 μg/kg i/p): 1.72%; CD69-positive, % (thymic cells; 1.0 μg/kg i/p): 7.86%; CD25-positive cells, % (thymic cells; 10.0 μg/kg Tablet, per os): 0.71%; CD69-positive, % (thymic cells; 10.0 μg/kg Tablet, per os): 2.24%; IL-2 production (U/ml), M ± SD ([2]; ConA 1 μg/ml, 0.01 μg/kg per os): 10.4 ± 1.1 U/ml; IL-2 production (U/ml), M ± SD ([2]; ConA 1 μg/ml, 0.1 μg/kg i/p): 16.1 ± 0.8 U/ml; IL-2 production (U/ml), M ± SD ([2]; ConA 1 μg/ml, 0.1 μg/kg per os): 7.5 ± 0.1 U/ml; IL-2 production (U/ml), M ± SD ([2]; ConA 1 μg/ml, 1.0 μg/kg i/p): 15.6 ± 0.3 U/ml; IL-2 production (U/ml), M ± SD ([2]; ConA 1 μg/ml, 1.0 μg/kg per os): 10.0 ± 0.4 U/ml; IL-2 production (U/ml), M ± SD ([2]; ConA 1 μg/ml, 10.0 μg/kg per os): 9.1 ± 1.3 U/ml; IL-2 production (U/ml), M ± SD ([2]; ConA 1 μg/ml, 100.0 μg/kg per os): 14.9 ± 2.4 U/ml; IL-2 production (U/ml), M ± SD ([2]; ConA 2 μg/ml, 0.01 μg/kg per os): 66.9 ± 12.6 U/ml; IL-2 production (U/ml), M ± SD ([2]; ConA 2 μg/ml, 0.1 μg/kg i/p): 93.4 ± 28.3 U/ml; IL-2 production (U/ml), M ± SD ([2]; ConA 2 μg/ml, 0.1 μg/kg per os): 85.8 ± 6.6 U/ml; IL-2 production (U/ml), M ± SD ([2]; ConA 2 μg/ml, 1.0 μg/kg i/p): 99.3 ± 6.1 U/ml; IL-2 production (U/ml), M ± SD ([2]; ConA 2 μg/ml, 1.0 μg/kg per os): 60.8 ± 1.2 U/ml; IL-2 production (U/ml), M ± SD ([2]; ConA 2 μg/ml, 10.0 μg/kg per os): 56.4 ± 2.1 U/ml; IL-2 production (U/ml), M ± SD ([2]; ConA 2 μg/ml, 100.0 μg/kg per os): 79.3 ± 16.3 U/ml; IL-2 production (U/ml), M ± SD ([2]; Spontaneous, 0.01 μg/kg per os): 0.0 ± 0.0 U/ml; IL-2 production (U/ml), M ± SD ([2]; Spontaneous, 0.1 μg/kg i/p): 2.0 ± 0.3 U/ml; IL-2 production (U/ml), M ± SD ([2]; Spontaneous, 0.1 μg/kg per os): 0.0 ± 0.0 U/ml; IL-2 production (U/ml), M ± SD ([2]; Spontaneous, 1.0 μg/kg i/p): 2.7 ± 0.3 U/ml; IL-2 production (U/ml), M ± SD ([2]; Spontaneous, 1.0 μg/kg per os): 0.3 ± 0.5 U/ml; IL-2 production (U/ml), M ± SD ([2]; Spontaneous, 10.0 μg/kg per os): 0.0 ± 0.0 U/ml; IL-2 production (U/ml), M ± SD ([2]; Spontaneous, 100.0 μg/kg per os): 0.3 ± 0.5 U/ml
